From patent publication US12351571B2, “Substituted quinoxaline compounds as inhibitors of FGFR tyrosine kinases” (ARRAY BIOPHARMA INC., priority 2018, dated 2025)

Assays:
dephosphorylated FGFR2 = dephosphorylated FGFR2 (Homo sapiens (Human), UniProt P21802); experiment: FGFR Enzyme Binding Assay (HTRF tracer displacement), FGFR2; conditions: 5 nM dephosphorylated FGFR2, 60 minute incubation at 22° C.; read-out: FGFR2 Enz Binding IC50
Procedure: The potency of compounds inhibiting human isoforms of FGFR kinase was determined using Life Technologies' Homogeneous Time Resolved Fluorescence (HTRF)-based binding assay technology. An incubation was conducted with either 5 nM dephosphorylated FGFR1 (Array Biopharma, p1702; SEQ ID NO: 1, amino acids 458 to 765, dephosphorylated by co-expression with PTP1b (protein tyrosine phosphatase 1B)), 5 nM dephosphorylated FGFR2 (Life Technologies, Cat. No. PV4106 that had been dephosphorylated with Lambda protein phosphatase (New England Biolabs, cat #P0753)) or 5 nM phosphorylated FGFR3 (Array Biopharma, p1836; SEQ ID NO: 5, amino acids 449 to 759), 50 nM Kinase Tracer 236 (Life Technologies Cat. No. PR9078A), 2 nM Biotin-anti-6HIS (Life Technologies Cat. No. PV6090) and 2 nM Europium-Streptavidin (Life Technologies Cat. No. PV6025) along with test compound in a buffer consisting of 50 mM HEPES ((4-(2-hydroxyethyl)-1-piperazineethanesulfonic acid, pH 7.5), 5 mM MgCl2, 0.005% Triton X-100, 1 mM DTT, 1 mM NaVO4 and 2% DMSO in a final volume of 12 μL Compounds were typically prepared as a 3-fold or 4-fold serial dilution in DMSO and added to the assay to give the appropriate final concentration. After a 60 minute incubation at 22° C., the extent of tracer displacement was determined using a PerkinElmer EnVision multimode plate reader via HTRF dual wavelength detection, and the percent of control (POC) was calculated using a ratiometric emission factor. One hundred POC was determined using no test compound, and 0 POC was determined in the presence of 1 μM of an appropriate control inhibitor. A 4-parameter logistic curve was fit to the POC values as a function of the concentration of compound, and the IC50 value was the point where the best-fit curve crossed 50 POC.

human wild type FGFR2 = human wild type FGFR2 (Homo sapiens (Human), UniProt P21802); experiment: FGFR2 pFGFR Cell Assay; assay type: cell-based; conditions: HEK-293 cells, 1 hour compound, 30 ng/ml human FGF-acidic, ELISA
Chain of human wild type FGFR2 (P21802 22-821): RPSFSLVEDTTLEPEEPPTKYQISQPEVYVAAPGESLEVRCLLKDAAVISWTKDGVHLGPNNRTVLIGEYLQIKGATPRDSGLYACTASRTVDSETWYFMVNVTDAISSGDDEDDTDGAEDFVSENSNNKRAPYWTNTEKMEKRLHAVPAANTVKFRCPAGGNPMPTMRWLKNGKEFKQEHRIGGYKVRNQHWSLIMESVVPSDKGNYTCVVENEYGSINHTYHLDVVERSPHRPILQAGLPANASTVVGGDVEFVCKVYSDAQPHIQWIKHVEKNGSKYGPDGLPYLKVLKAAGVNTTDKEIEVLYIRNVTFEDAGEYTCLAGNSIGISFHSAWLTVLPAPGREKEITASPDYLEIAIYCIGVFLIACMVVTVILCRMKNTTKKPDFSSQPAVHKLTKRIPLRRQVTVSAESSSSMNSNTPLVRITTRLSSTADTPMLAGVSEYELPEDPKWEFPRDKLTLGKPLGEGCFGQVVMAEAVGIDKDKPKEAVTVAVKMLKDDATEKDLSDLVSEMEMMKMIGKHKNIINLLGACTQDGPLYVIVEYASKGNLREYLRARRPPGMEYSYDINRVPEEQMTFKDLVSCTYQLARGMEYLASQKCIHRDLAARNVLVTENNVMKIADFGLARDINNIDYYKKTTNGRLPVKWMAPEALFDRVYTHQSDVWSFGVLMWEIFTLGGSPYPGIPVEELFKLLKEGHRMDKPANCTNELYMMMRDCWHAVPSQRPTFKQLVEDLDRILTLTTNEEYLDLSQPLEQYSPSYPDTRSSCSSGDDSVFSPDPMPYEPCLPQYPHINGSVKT
Procedure: (§1) HEK-293 cells transfected with dox-inducible human wild type FGFR2 (SEQ ID NO: 3) were plated in a collagen or poly-D-lysine coated 96 well flat bottom plates at 4×10^5 cells/well in complete DMEM medium containing 10% FBS and 1 μg/ml doxycycline and allowed to attach for 24 h at 37° C., 5% CO2. Cells were treated with compound using 1:3 serial dilutions with a maximum final concentration of 5 μM. Compound was incubated on cells for 1 hour at 37° C., 5% CO2. Cells were then stimulated with a final concentration of 30 ng/ml human FGF-acidic (R&D Systems Cat number 232-FA/CF) for 5 minutes at 37° C., 5% CO2. Medium was removed and cells were lysed with lysis buffer containing phosphatase and protease inhibitors. Phospho FGFR2 was measured by ELISA (R&D Systems cat. no. DYC684). The ELISA captures total FGFR2 and detects total phospho tyrosine. Optical density was measured for each well using a Versamax reader at a wavelength of 450 nm. 100 POC was determined using no test compounds and 0 POC was determined using a control compound. The POC values were fit to a 4-parameter logistic curve as a function of the concentration of the compound, and the IC50 value is the point where the curve crosses 50 POC.

human wild type FGFR3 = human wild type FGFR3 (Homo sapiens (Human), UniProt P22607); experiment: FGFR3 pFGFR Cell Assay; assay type: cell-based; conditions: HEK-293 cells, 1 hour compound, 100 ng/ml human FGF-acidic, ELISA
Chain of human wild type FGFR3 (P22607 23-806): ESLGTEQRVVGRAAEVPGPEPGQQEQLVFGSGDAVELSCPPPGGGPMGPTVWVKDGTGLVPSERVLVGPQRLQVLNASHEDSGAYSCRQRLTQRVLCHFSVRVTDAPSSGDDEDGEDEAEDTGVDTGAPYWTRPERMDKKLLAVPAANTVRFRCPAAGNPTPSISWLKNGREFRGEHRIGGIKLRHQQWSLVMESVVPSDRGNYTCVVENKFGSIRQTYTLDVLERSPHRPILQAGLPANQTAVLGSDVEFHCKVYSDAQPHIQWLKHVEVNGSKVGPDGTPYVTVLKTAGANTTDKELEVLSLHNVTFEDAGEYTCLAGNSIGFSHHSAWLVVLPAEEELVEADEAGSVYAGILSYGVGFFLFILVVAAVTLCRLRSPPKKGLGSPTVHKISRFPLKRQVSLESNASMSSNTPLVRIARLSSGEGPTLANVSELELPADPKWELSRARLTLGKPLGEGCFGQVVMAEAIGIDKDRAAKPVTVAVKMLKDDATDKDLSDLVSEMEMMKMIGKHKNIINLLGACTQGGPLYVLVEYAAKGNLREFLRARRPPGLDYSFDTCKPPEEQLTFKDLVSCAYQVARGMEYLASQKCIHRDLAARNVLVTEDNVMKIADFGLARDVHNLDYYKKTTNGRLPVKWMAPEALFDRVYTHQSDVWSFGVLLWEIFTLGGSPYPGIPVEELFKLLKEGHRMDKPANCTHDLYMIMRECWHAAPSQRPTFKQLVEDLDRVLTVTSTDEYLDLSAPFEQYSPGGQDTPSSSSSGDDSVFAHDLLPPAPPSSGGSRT
Procedure: as §1, with “FGFR3” for “FGFR2”, “5)” for “3)”, “top” for “maximum”, “100” for “30”, “FGF-acidic” for “FGF-acidic (R&D Systems Cat number 232-FA/CF)”, “cat DYC2719).” for “cat. no. DYC684).”

Chain of dephosphorylated FGFR2 (P21802 22-821): as the sequence (P21802 22-821) above

SMILES | IC50 (dephosphorylated FGFR2) [nM] | IC50 (human wild type FGFR2) [nM] | IC50 (human wild type FGFR3) [nM]
C=CC(=O)N1CC[C@@H](C(=O)N2CCC(n3cc(-c4cnc5ccc(Nc6cc(OC)cc(OC)c6)cc5n4)cn3)CC2)C1 [Example 2, (R)-1-(3-(4-(4-(7-((3,5-dimethoxyphenyl)amino)-quinoxalin-2-yl)-1H-pyrazol-1-yl)piperidine-1-carbonyl)pyrrolidin-1-yl)-prop-2-en-1-one] | 6 | 117 | 121
C=CC(=O)N1CCC(C(=O)N2CCC(n3cc(-c4cnc5ccc(Nc6cc(OC)cc(OC)c6)cc5n4)cn3)CC2)CC1 [Example 3, 1-(4-(4-(4-(7-((3,5-dimethoxyphenyl)amino)-quinoxalin-2-yl)-1H-pyrazol-1-yl)piperidine-1-carbonyl)piperidin-1-yl)prop-2-en-1-one] | 5 | 69 | 89
